This note sets out measurements from patent EP2647638A1, “Substituted tricyclic compounds with activity towards ep1 receptors” (Almirall, S.A., priority 2012, dated 2013).

This assay deals with T1, human EP1 receptor (Homo sapiens, UniProt P34995).
T1 construct: expressed in transfected cells; host or cells: HEK-293 cell membranes
T1 sequence (P34995 1-402): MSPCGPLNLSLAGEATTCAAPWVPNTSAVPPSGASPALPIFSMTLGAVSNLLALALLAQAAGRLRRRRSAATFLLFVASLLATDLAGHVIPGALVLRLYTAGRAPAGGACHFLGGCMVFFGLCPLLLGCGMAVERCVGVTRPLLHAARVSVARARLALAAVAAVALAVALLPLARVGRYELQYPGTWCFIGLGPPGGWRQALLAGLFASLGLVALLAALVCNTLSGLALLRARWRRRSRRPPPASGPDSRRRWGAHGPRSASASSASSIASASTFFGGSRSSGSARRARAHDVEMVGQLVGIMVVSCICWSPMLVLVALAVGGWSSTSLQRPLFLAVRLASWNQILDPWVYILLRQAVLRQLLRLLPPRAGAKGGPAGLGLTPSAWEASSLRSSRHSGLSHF
The assay can be described thus: Human EP1 receptor radioligand binding assay. The following applies: transfected HEK-293 cell membranes, [3H]-PGE2 (10 nM), pH 6.0, 25 °C for 60 minutes. Here is the method: To investigate binding properties of EP1 receptor ligands to human EP1 receptor, transfected HEK-293 cell membranes and [3H]-PGE2 (Perkin Elmer) were used. In 96-well plates the assay was carried out with a total reaction volume of 250 µl, containing 25 µl of membrane suspension (30 µg protein/well), 25 µl of [3H]-PGE2 (10 nM) in either absence or presence of 25 µl of either buffer or PGE2 (10 µM) for total and non-specific binding, respectively. Binding buffer contained 10 mM MES, 1 mM MgCl2 and 1 mM EDTA at pH 6.0. Plates were incubated at 25 °C for 60 minutes. After the incubation period, 200 µl of incubate were transferred to MultiScreen HTS, FB plates (Millipore), filtered and plates were washed 6 times with ice-cold 10 mM MES, 1 mM MgCl2 and 1 mM EDTA at pH 6.0. Filters were dried and counted in a MicroBeta scintillation counter (Perkin-Elmer) using EcoScint liquid scintillation cocktail.
Percentage inhibition was calculated relating compounds activity to the 0% inhibition of the wells incubated with 10 nM [3H]-PGE2 alone (total binding) and 100% inhibition of the wells incubated with 10 nM [3H]-PGE2 plus 10 µM PGE2 (non-specific binding). Competition binding curves were carried out by assaying 6 different concentrations with duplicated points. The inhibition constant (Ki) of each compound was calculated by the Cheng-Prusoff equation: Kl = IC50 /(1+⌊L⌋/KD) [formula] where IC50 is the concentration of compound that displaces the binding of radioligand by 50%, [L] is the free concentration of radioligand and KD is the dissociation constant of each radioligand. IC50 values were obtained by fitting the data with non-linear regression using XIFit software (IDBS).
In turn, `COc1ccc2c(c1)[C@@H]1OCCC[C@@H]1[C@H](c1ccc(C(=O)O)cc1C)N2` [Example 5, 4-((4aR, 5R, 10bR)-3,4,4a, 5,6, 10b-hexahydro-9-methoxy-2H pyrano[3,2-c]quinolin-5-yl)-3-methylbenzoic acid] had a Ki of 0.1 to 0.5 µM.

As to `Cc1ccc2c(c1)[C@@H]1OCCC[C@@H]1[C@H](c1ccc(C(=O)O)cc1C)N2` [Example 6, 4-((4aR, 5R, 10bR)-3,4,4a, 5,6, 10b-hexahydro-9-methyl-2H pyrano[3,2-c]quinolin-5-yl)-3-methylbenzoic acid], the Ki is 0.1 to 0.5 µM.

Molecule `Cc1cc(C(=O)O)ccc1[C@H]1Nc2ccc(Cl)cc2[C@@H]2OCCC[C@H]12` (racemic) [Example 10, 4-((4aR, 5S, 10bR)-9-chloro-3,4,4a, 5,6, 10b-hexahydro-2H pyrano[3,2-c]quinolin-5-yl)-3-methylbenzoic acid] displayed an inhibitory constant (Ki) of under 0.1 µM.

For `O=C(O)c1ccc([C@@H]2Nc3ccc(Br)cc3[C@@H]3OCCC[C@H]23)cc1` [Example 2, 4-((4aR,5R,10bR)-9-bromo-3,4,4a,5,6,10b-hexahydro-2H-pyrano[3,2-c]quinolin-5-yl)benzoic acid], the inhibition constant (Ki) is over 0.5 µM.
